Source: patent publication EP0928793B1, “Thiazole derivatives” (F. HOFFMANN-LA ROCHE AG, priority 1998, dated 1999)

Target: T1, vitronectin receptor αvβ3 (Homo sapiens, UniProt P05106+P06756)
T1 construct: Human placenta is stored at -80°C immediately after its excision; In order to extract the receptor; from tissue; host or cells: human placenta
Experiment: Inhibition of fibrinogen binding to immobilised vitronectin receptor αvβ3 (ELISA)
Conditions: fibrinogen 1.5 µg/ml, receptor from human placenta coated on microtitre plates, overnight at room temperature, ELISA detection; read-out: VNR IC50
Experimental: The inhibition of the binding of adhesive proteins such as e.g. fibrinogen to vitronectin receptors (such as e.g. αvβ3, αvβ5, αvβ6, αvβ8, etc. or to the fibrinogen receptor (αIIbβ3) by compounds of formula I can be determined as described by L. Alig et al. (J.Med.Chem. 1992, 35, 4393-4407).
In detail thereto, the wells of microtitre plates (Nunc-Immunoplate MaxiSorp) were coated overnight at 4°C with the vitronectin receptor αvβ3 (from human placenta, 100 µl/well) in a buffer system with 150 mmol/l NaCl, 1 mmol/CaCl2, 1 mmol/l MgCl2, 0.0005% Triton X-100 and 20 mmol/l Tris HCl, pH 7.4. The non-specific binding sites were blocked by incubation with 3.5% bovine serum albumin (BSA from Fluka) at 20°C for at least 1 h. Before the beginning of the test the plates were washed in each case once with 150 mmol/l NaCl, 1 mmol/l CaCl2, 1 mmol/l MgCl2 and 20 mmol/l Tris HCI, pH 7.4 (buffer A). The thus-coated plates can be stored for at least 2 months in the presence of 0.05% NaN3 (in buffer A) at 4°C in a humidity chamber without loss of binding activity. Fibrinogen (IMCO, free from fibronectin) was diluted to 1.5 µg/ml in buffer A in the presence of 1% BSA. The wells coated with the receptor were incubated with fibrinogen (100 µl/well) overnight at room temperature in the absence of or in the presence of increasing concentrations of RGDS (as the reference substance) or the compounds to be measured. Non-bound fibrinogen was removed by three-fold washing with buffer A and bound fibrinogen was detected by an ELISA procedure. Antibodies of rabbits directed against human fibrinogen (Dakopatts, Denmark), diluted in buffer A in the presence of 0.1% BSA, were added at room temperature for 1h., followed by incubation with biotinylated antibodies directed against rabbit immunoglobulin (Amersham) for 30 min. Non-bound antibodies were removed by three-fold washing with buffer A. Thereafter, the pre-formed streptavidin-biotinylated peroxidase complex (Amersham) was added for 30 min. Three-fold washing with buffer A was again carried out. After addition of the peroxidase substrate ABTS (2,2'-azino-bis(3-ethylbenzothiazoline-6-sulphonic acid), Boehringer Mannheim) the enzyme activity was measured with a multichannel photometer (UVmax, Molecular Devices). The difference between total binding activity (in the absence of a test substance) and non-specific binding activity (in the presence of 100 µM RGDS) is taken as the specific binding activity. The concentration of a test substance which is required to inhibit the specific binding activity by 50% was defined as the IC50.
The isolation of the receptor avb3 used in the test can be carried out as follows: Human placenta is stored at -80°C immediately after its excision. In order to extract the receptor, each placenta is superficially thawed and cut into narrow strips with a scalpel. The pieces are washed twice with a buffer of 150 mmol/l NaCl, 1 mmol/l CaCl2, 1 mmol/l MgCl2 and 20 mmol/l Tris HCl (pH 7.4). The proteins are extracted at room temperature for one hour with a buffer solution from 1% Triton X-100, 150 mmol/l NaCl, 1 mmol/l CaCl2, 1 mmol/l MgCl2, 20 mmol/l Tris HCl, 0.02% NaN3, 0.5 mmol/l phenylmethanesulphonyl fluoride, 1 mmol/l leupeptin and 2 mmol/l N-ethylmaleimide (pH 7.4) and filtered through sterile gauze. The filtrate is centrifuged at 30000 g for 30 min. at 4°C. The glycoproteins are firstly separated with the aid of a concanavalin A-Sepharose 4B column. The proteins bound to the column are eluted and then added to a Aeg-RGDS column. After repeated washing the bound vitronectin receptor is eluted by 3 mmol/l RGDS in a buffer of 0.1% Triton X-100, 150 mmol/l NaCl, 20 mmol/l Tris HCl, 1 mmol/l CaCl2, 1 mmol/l MgCl2, 0.05% NaN3 (pH 7.0).

T1 sequence (P06756 31-889 limits assumed): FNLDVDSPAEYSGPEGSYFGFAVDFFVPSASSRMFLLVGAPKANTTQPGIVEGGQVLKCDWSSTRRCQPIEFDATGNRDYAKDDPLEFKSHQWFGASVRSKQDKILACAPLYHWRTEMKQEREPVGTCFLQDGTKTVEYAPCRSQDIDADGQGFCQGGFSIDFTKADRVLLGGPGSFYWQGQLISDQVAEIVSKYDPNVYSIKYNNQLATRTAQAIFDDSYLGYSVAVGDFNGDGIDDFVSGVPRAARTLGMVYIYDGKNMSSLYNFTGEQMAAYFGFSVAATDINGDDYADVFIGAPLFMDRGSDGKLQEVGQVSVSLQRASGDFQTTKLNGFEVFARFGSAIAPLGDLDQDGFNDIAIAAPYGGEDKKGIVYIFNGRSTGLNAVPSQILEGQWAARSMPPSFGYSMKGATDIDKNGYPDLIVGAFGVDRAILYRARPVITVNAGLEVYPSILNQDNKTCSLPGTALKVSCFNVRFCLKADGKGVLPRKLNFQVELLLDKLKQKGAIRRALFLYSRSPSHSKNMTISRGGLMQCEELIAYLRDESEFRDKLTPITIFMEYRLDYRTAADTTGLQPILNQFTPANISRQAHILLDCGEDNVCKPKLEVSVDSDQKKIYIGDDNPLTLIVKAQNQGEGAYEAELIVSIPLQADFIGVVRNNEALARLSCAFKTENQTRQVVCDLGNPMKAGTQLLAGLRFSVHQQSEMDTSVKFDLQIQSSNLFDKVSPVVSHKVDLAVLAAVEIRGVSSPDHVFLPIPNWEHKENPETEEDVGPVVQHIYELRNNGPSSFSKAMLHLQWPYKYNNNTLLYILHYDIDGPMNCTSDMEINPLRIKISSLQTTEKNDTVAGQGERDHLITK
T1 sequence (P06756 891-1048 partner limits assumed): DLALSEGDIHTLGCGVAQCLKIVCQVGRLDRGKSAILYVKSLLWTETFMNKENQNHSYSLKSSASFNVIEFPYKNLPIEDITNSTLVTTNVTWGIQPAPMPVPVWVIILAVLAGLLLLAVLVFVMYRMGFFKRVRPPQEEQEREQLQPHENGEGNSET
T1 sequence (P05106 27-788): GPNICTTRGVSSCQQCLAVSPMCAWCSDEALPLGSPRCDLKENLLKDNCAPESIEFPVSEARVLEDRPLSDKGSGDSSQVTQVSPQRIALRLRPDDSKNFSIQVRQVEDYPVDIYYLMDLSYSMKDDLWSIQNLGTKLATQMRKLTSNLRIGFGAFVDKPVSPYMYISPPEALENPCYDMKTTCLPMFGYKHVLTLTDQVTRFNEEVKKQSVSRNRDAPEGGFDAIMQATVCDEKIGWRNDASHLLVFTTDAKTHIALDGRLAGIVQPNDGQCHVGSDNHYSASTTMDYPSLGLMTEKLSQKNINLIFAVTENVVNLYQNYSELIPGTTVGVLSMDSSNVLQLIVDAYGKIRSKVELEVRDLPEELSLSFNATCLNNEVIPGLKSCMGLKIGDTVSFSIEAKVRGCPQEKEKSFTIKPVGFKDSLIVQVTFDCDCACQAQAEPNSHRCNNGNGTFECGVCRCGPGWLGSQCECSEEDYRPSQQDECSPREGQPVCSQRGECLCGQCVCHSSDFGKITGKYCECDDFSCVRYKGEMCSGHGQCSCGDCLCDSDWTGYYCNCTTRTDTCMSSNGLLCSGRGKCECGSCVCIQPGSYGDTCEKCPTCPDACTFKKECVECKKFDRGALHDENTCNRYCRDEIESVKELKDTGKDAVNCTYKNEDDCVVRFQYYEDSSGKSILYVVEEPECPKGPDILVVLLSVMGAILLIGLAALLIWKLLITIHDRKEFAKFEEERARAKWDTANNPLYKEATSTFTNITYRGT

| IC50 [nM] | Compound |
| --- | --- |
| 18 | CCCc1nc(N=C(N)N)sc1C(=O)N1CCCC(COCC(=O)O)C1 (racemic) [rac [1-(2-guanidino-4-propyl-thiazole-5-carbonyl)-piperidin-3-ylmethoxy]-acetic acid] |
| 22 | CC(C)(C)c1nc(N=C(N)N)sc1C(=O)N1CCCC(COCC(=O)O)C1 (racemic) [rac [1-(4-tert-butyl-2-guanidino-thiazole-5-carbonyl)-piperidin-3-ylmethoxy]-acetic acid] |
| 90 | NC(N)=Nc1nc(C2CCCC2)c(C(=O)N2CCCC(COCC(=O)O)C2)s1 (racemic) [rac [1-(4-cyclopentyl-2-guanidino-thiazol-5-ylcarbonyl)-piperidin-3-ylmethoxy]-acetic acid] |

Further lines, the molecule ahead of its results:

| Compound | IC50 [nM] |
| --- | --- |
| NC(N)=Nc1nc(-c2ccccc2)c(C(=O)N2CCCC(COCC(=O)O)C2)s1 (racemic) [rac [1-(2-guanidino-4-phenyl-thiazole-5-carbonyl)-piperidin-3-ylmethoxy]-acetic acid] | 70 |
| Cc1nc(NC(=N)N)sc1C(=O)N1CCC[C@@H](COCC(=O)O)C1 [(R)-[1-(2-guanidino-4-methyl-thiazole-5-carbonyl)-piperidin-3-ylmethoxy]-acetic acid] | 50 |
| Cc1nc(N=C(N)N)sc1C(=O)N1CCCC(COCC(=O)O)C1 (racemic) [rac [1-(2-guanidino-4-methyl-thiazole-5-carbonyl)-piperidin-3-ylmethoxy]-acetic acid] | 39 |
